Non-standard residues stand in square brackets, D forms with d. pGlu = O=C1CC[C@@H](C(=O)O)N1

Experiment [1] concerns ICR mice with CFA-induced arthritis (bilateral mechanical hyperalgesia). Put plainly: Paw withdrawal threshold (PWT) by von Frey Filament in CFA-induced arthritis mice. The conditions noted are these: for PWT value of ipsilateral hind paw / PWT value of contralateral paw: 90 min after administration; for time of best antinociceptive effect after administration: peptide 3 mg/kg, morphine 10 mg/kg, PWT determined at 0, 30, 60, 90, 120 min.

In another experiment the test system is TNF-α. Description: Serum TNF-α by ELISA in CFA-induced arthritis mice after long-term oral administration. In kind it is in vivo, ICR mice. As to conditions: 3 mg/kg oral once a week, 4th to 12th week; serum at 12th week; vs water control; FIG. 1. As to the method: (§1) On the other hand, the mice administered with water were served as the control group, which also comprised 6 mice. The mice in the experimental group and the control group were sacrificed on the 12th week after administration. The serum collection is conducted by cardiac puncture. The Mouse TNF-α Quantikine ELISA Kit (R&D System, MTA00B), Mouse IL-6 Quantikine ELISA Kit (R&D System, M600B) and enzyme-linked immunosorbent assay (ELISA) were used to determine and collect the serum concentration of TNF-α and IL-6 of mice in the experimental group and the control group.

The subject of the next experiment is IL-6. Description: Serum IL-6 by ELISA in CFA-induced arthritis mice after long-term oral administration. Type of experiment: in vivo, ICR mice. As to conditions: 3 mg/kg oral once a week, 4th to 12th week; serum at 12th week; vs water control; FIG. 2. As to the method:
as §1
On the technique in general: An ELISA detects its analyte on a solid surface through an enzyme-linked reagent.

The test system of experiment [2] is C57BL/6JNarl male mice (acetic acid-induced visceral pain). Put plainly: Acetic acid-induced writhing (abdominal constriction) assay. In kind it is in vivo, C57BL/6JNarl mice. As to conditions: oral doses of 1 μg/kg and 10 mg/kg, among 0.1 μg/kg to 10 mg/kg tested; 10 min before 1% acetic acid; FIG. 9. As for the experimental part: (§2) For conducting nociceptive pain and acid-induced chronic widespread pain experiments, C57BL/6JNarl male mice (20 to 25 g) were housed in an environment with temperature control (24±0.5° C.) and 12-hour light-dark cycle (lights on during 08:00-20:00) and allowed free access to standard laboratory food and tap water. Animals were allowed to acclimatize for 20 to 30 min prior to experimental manipulations. Animal care and handling procedures were adopted in accordance with the International Association for the Study of Pain guidelines for those animals used in pain research, and the procedures were approved by the Committee for Ethics in Animal Research.
Acid-induced abdominal constriction assay was performed in accordance with H. O. Collier, L. C. Dinneen, C. A. Johnson, C. Schneider, The abdominal constriction response and its suppression by analgesic drugs in the mouse. Br J Pharmacol Chemother 32, 295-310 (1968). In general, the mice from Preparation Example 3 were placed in a small observation chamber and habituated for 20 min. […] The numbers of abdominal constrictions in 30 min after acid injection were counted and the mean constriction numbers of mice of each group were calculated. […]

In experiment [3] the test system is C57BL/6JNarl male mice (radiant heat tail-flick). Put plainly: Radiant heat tail-flick test. In kind it is in vivo, C57BL/6JNarl mice. The conditions noted are these: oral doses of 0.1 μg/kg, 0.3 μg/kg, 0.1 mg/kg, 1 mg/kg, 3 mg/kg and 10 mg/kg, among 0.01 μg/kg to 10 mg/kg tested; latency 10-90 min; FIG. 9. As for the experimental part: as §2
The radiant heat tail-flick test was modified in accordance with F. E. D'Amour, D. L. Smith, A method for determining loss of pain sensation. The Journal of Pharmacology and Experimental Therapeutics 72, 74-79 (1941). The 5 to 12 mice from Preparation Example 3 were placed and acclimatized in the restrainers for 30 min prior to the tail-flick test. […] The latency was recorded every 10 min during the indicated time period (10-90 min) after oral administration with different dosages of the peptide of SEQ ID NO: 1 (0.01 μg/kg, 0.03 μg/kg, 0.1 μg/kg, 0.3 μg/kg, 1 μg/kg, 0.01 mg/kg, 0.1 mg/kg, 1 mg/kg, 3 mg/kg, and 10 mg/kg). Then the latency during 10-90 min was calculated. […]
In general terms: Hot-plate and tail-flick tests time the reaction to a heat stimulus.

For the compound `CN1CC[C@]23c4c5ccc(O)c4O[C@H]2[C@@H](O)C=C[C@H]3[C@H]1C5` [morphine, reference compound], the “PWT value of ipsilateral hind paw” value in experiment [1] (morphine 10 mg/kg oral on 4th week, rose from 0.085±0.015 g, FIG. 3) was determined as 0.64 ± 0.089 g. In experiment [1] (morphine 10 mg/kg oral on 4th week, rose from 0.43±0.033 g, FIG. 4), the “PWT value of contralateral paw” value came to 1.96 ± 0.488 g. In experiment [1] (oral), the “time of best antinociceptive effect after administration” value was found to be 90 min.

As for “Glp Glu Thr Ala Val Ser Ser His Glu Gln Asp ([pGlu]ETAVSSHEQD-OH; SMILES CC(C)[C@H](NC(=O)[C@H](C)NC(=O)[C@@H](NC(=O)[C@H](CCC(=O)O)NC(=O)[C@@H]1CCC(=O)N1)[C@@H](C)O)C(=O)N[C@@H](CO)C(=O)N[C@@H](CO)C(=O)N[C@@H](Cc1c[nH]cn1)C(=O)N[C@@H](CCC(=O)O)C(=O)N[C@@H](CCC(N)=O)C(=O)N[C@@H](CC(=O)O)C(=O)O) [peptide of SEQ ID NO: 1]”, the “serum concentration of TNF-α” value in the experiment on TNF-α is reported as “not detected (ND)”. In addition, the “serum concentration of IL-6” value in the experiment on IL-6 is reported as “decreased compared to the control group”. For the same compound, the “antinociceptive effect in the acid-induced writhing experiment (antinociceptive activity %)” value in experiment [2] is “best antinociceptive effect”. Also, in experiment [3], the “antinociceptive effect in the radiant heat tail-flick test (% MPE)” value is “best antinociceptive effect”. The “PWT value of ipsilateral hind paw” value was 1 g in experiment [1] (0.3 μg/kg oral, rose from 0.065 g, FIG. 7); 0.6 g in experiment [1] (1 μg/kg oral, rose from 0.065 g, FIG. 7); 0.16 g in experiment [1] (3 μg/kg oral, rose from 0.065 g, FIG. 7); 0.5˜1 g in experiment [1] (1 mg/kg oral once a week, 4th to 12th week, increased from 0.09 g, FIG. 5); 0.63˜1 g in experiment [1] (3 mg/kg oral once a week, 4th to 12th week, increased from 0.09 g of 3rd week, FIG. 5); 0.9 ± 0.156 g in experiment [1] (peptide 3 mg/kg oral on 4th week, rose from 0.07 g, FIG. 3). Also, the “PWT value of contralateral paw” value in experiment [1] (0.3 μg/kg oral, rose from 0.32 g, FIG. 8) was 1 g; in experiment [1] (1 μg/kg oral, rose from 0.32 g, FIG. 8), 1.4 g; in experiment [1] (3 μg/kg oral, rose from 0.32 g, FIG. 8) it was 1 g; in experiment [1] (1 mg/kg oral once a week, 4th to 12th week, increased from 0.4 g at 3rd week, FIG. 6) it was 0.6˜ 1.2 g; in experiment [1] (3 mg/kg oral once a week, 4th to 12th week, increased from 0.4 g, FIG. 6) it was 0.87˜1.27 g; in experiment [1] (peptide 3 mg/kg oral on 4th week, rose from 0.5±0.047 g, FIG. 4), 1.35 ± 0.193 g. Moreover, the “antinociceptive effects of 1 mg/kg and 3 mg/kg compared (PWT)” value in experiment [1] (oral, long-term administration once a week, 4th to 12th week) was “similar”. Also, the “time of best antinociceptive effect after administration” value in experiment [1] (oral) is 90 min. In addition, the “antinociceptive effect compared with morphine (PWT)” value in experiment [1] (peptide 3 mg/kg oral vs morphine 10 mg/kg oral, lower amount required) is “antinociceptive effect similar to morphine”.

The values above are taken from patent publication US20240239841A1, “PEPTIDE AND METHOD FOR TREATING PAIN USING THE SAME” (PELL BIO-MED TECHNOLOGY CO., LTD., priority 2019, published 2024).
